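48-hour exposure; five concentrations; linearly interpolated endpoints. GI50 is the concentration that inhibits growth by half.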 Activity calls are given as the source filed them. Cut-off read from the data, not from the text of the source: active = GI50 up to about 1.1 µM and inactive = higher.
Key:
Test in all cases: DTP human tumour cell line panel, 48 h
[1] = system: ACHN
[2] = system: LOX IMVI
[3] = system: SF-268
[4] = system: HOP-92
[5] = system: NCI-H226
[6] = system: MDA-MB-435
[7] = system: SK-MEL-5
[8] = system: OVCAR-8
[9] = system: OVCAR-5
[10] = system: SF-295
[11] = system: TK-10
[12] = system: A549
[13] = system: HCT-116
[14] = system: COLO 205
[15] = system: HCT-15
[16] = system: A498
[17] = system: DU-145
[18] = system: HCC 2998
[19] = system: SR
[20] = system: EKVX

Measured: GI50

C[C@]12CC[C@H]3[C@@H](CC[C@]4(O)C[C@@H](O)CC[C@]34C=O)[C@@]1(O)CC[C@@H]2C1=CC(=O)OC1 [STROPHANTHIDIN]
inactive: [4] 1250 nM | [5] 1230 nM | [9] 1420 nM | [14] 1360 nM | [18] 4270 nM
active: [1] 142 nM | [2] 453 nM | [3] 397 nM | [6] 522 nM | [7] 288 nM | [8] 498 nM | [10] 457 nM | [11] 465 nM | [12] 159 nM | [13] 259 nM | [16] 562 nM | [17] 284 nM | [19] 386 nM | [20] 361 nM
413 nM: [15]

From ChEMBL document CHEMBL1201862, “PubChem BioAssay data set” (2004)
